PubChem BioAssay (NCI)
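Assay format: 96-well plates, 48-hour exposure. The concentration for 50% growth inhibition is given as GI50. TGI denotes the concentration required for complete inhibition of growth.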

Experiments:
Experiment in all cases: inhibition of tumour cell growth, NCI panel, 48 h
[1] = tested on: NCI-H460 lung
[2] = tested on: SR leukemia
[3] = tested on: SNB-75 CNS
[4] = tested on: IGROV1 ovarian
[5] = tested on: HS 578T breast
[6] = tested on: SF-539 CNS
[7] = tested on: HCT-116 colon
[8] = tested on: T-47D breast
[9] = tested on: BT-549 breast
[10] = tested on: SK-MEL-28 melanoma

Row | Structure (SMILES) | GI50 [1] [µM] | TGI [1] [µM] | GI50 [2] [µM] | TGI [2] [µM] | GI50 [3] [µM] | GI50 [4] [µM] | TGI [4] [µM] | GI50 [5] [µM] | TGI [5] [µM] | GI50 [6] [µM] | TGI [6] [µM] | GI50 [7] [µM] | TGI [7] [µM] | GI50 [8] [µM] | TGI [8] [µM] | GI50 [9] [µM] | TGI [9] [µM] | GI50 [10] [µM] | TGI [10] [µM] | TGI [3] [µM]
1 | COc1ccc(C(=O)Nc2ncc(Cc3cccc(Cl)c3)s2)cc1OC | 0.0611 | > 100 | 0.164 | > 100 | 0.405 | 0.525 | > 100 | 0.445 | > 100 | 0.312 | 2.5 | 0.0769 | > 100 | 0.169 | > 100 | 0.883 | > 100 | 0.119 | > 100 | –
2 | Nc1c(C(=O)c2ccc(-c3cccnc3)cc2)cnn1-c1ccc(F)cc1 | > 14.2 | > 25 | > 25 | > 25 | 11.3 | 24.3 | > 25 | > 25 | > 25 | > 16.7 | > 25 | > 14 | > 25 | 9.72 | > 21.7 | > 25 | > 25 | > 17.4 | > 25 | > 25
3 | CN1CCC(COc2cnc(-c3cccc(Cn4nc(-c5cccc(C#N)c5)ccc4=O)c3)nc2)CC1 | 3.58 | 12.3 | 2.08 | 4.49 | 1.81 | 6.8 | 25.2 | 4.63 | 19.8 | 1.7 | 3.3 | 2.41 | 6.35 | 2.27 | 5.99 | 4.66 | 15.2 | 1.82 | 3.52 | 5.28
4 | CCOC(=O)C1=C(C)N=c2s/c(=C\c3ccccc3O)c(=O)n2C1c1ccc(OC)c2ccccc12 (stereo not given) | 8.92 | 39.5 | 4.4 | 58.8 | 2.01 | 21.4 | 75 | 2.95 | 13.4 | 1.76 | 3.67 | 3.26 | 12.1 | 5.28 | 22.8 | 14.6 | > 100 | 15.5 | 76.4 | 6.11
5 | CSC1=Nc2c(c(C)c(-c3ccccc3)n2CCCN2CCCCC2)C2=NC(=O)C[C@H](C)N12 | 3.27 | 12.4 | 16.7 | > 100 | 4.98 | 2.25 | 13.5 | 2.04 | 10.4 | 6.07 | 70.4 | 2.71 | > 44.6 | 2.28 | 8.53 | 2.83 | 13.7 | 3.32 | 14.9 | 32
6 | CSc1ccc(-c2ccccc(=O)c2O)cc1 | 0.371 | 10.8 | 0.404 | 14.5 | 3.12 | 0.427 | > 100 | 2.77 | 99.7 | 0.394 | 11.6 | 0.506 | 37.4 | 0.985 | > 100 | 0.873 | 35.2 | 0.663 | 32.9 | > 100
7 | C[C@]12CC[C@@H]3c4cc(OC(F)F)c(O)cc4CC[C@H]3[C@@H]1CC[C@@H]2OS(N)(=O)=O | 0.422 | 15.4 | 0.422 | > 100 | 0.23 | 0.687 | > 100 | 0.475 | 48.8 | 0.455 | 14.4 | 0.419 | 18.9 | 1.02 | 50.7 | 2.8 | 45.3 | 10.5 | 78.2 | 0.945
8 | Nc1nc2c(ncn2C2CCC(CO)O2)c(=O)n1C(=O)c1ccccc1 (stereo not given) | – | > 100 | – | > 100 | – | – | > 100 | – | > 100 | – | > 100 | – | > 100 | – | > 100 | – | > 100 | – | > 100 | > 100
9 | CC[C@@H]1[C@@H](C)O[C@@](O)([C@@H](C)[C@H](O)[C@H](C)[C@H]2OC(=O)/C=C/C=C/[C@H](C)[C@@H]([C@@H](C)[C@@H](O)[C@H](C)[C@@]3(O)C[C@@H](O[C@H]4C[C@@H](O)[C@H](O)C(C)O4)[C@H](CC)[C@@H](C)O3)OC(=O)/C=C/C=C/[C@@H]2C)C[C@H]1O[C@@H]1C[C@@H](O)[C@H](O)C(C)O1 (stereo not given in full) | 0.0569 | 0.115 | – | – | 0.0495 | 0.0903 | 0.241 | 0.0798 | 0.253 | 0.0708 | 0.182 | 0.0688 | 0.165 | 0.0949 | 0.34 | 0.0569 | 0.124 | 0.0885 | 0.258 | 0.149
10 | Nc1cc(F)ccc1CC(=O)O | – | – | – | > 100 | – | – | > 100 | – | > 100 | – | > 100 | – | > 100 | – | > 100 | – | > 100 | – | > 100 | > 100
11 | COC1=CC(c2ccc[nH]2)=N/C1=C\c1[nH]c(C)c(CC(=O)OCc2ccccc2)c1CCC(=O)OCc1ccccc1 | 0.399 | 13.1 | 0.236 | 0.74 | 0.275 | 0.4 | 2.55 | 0.395 | 2.87 | 0.458 | 1.74 | 0.233 | 1.04 | 0.256 | 0.922 | 0.37 | 2.68 | – | – | 1.53
12 | C=CCC(N[C@@H](CO)c1ccccc1)c1cn(Cc2ccccc2Cl)c(=O)n(Cc2ccccc2Cl)c1=O (stereo not given in full) | > 100 | > 100 | > 100 | > 100 | 79.3 | – | – | > 100 | > 100 | > 100 | > 100 | 87.3 | > 100 | > 100 | > 100 | 76.2 | > 100 | > 100 | > 100 | > 100
13 | CCC(CC)c1nc(Nc2ccc(C(=O)OC)cc2)c2ccccc2n1 | 19.9 | > 50 | 10.1 | 26.7 | – | 11.6 | 28.5 | 10.9 | 26.5 | > 20.5 | > 28.6 | 12.9 | > 28.6 | 7.88 | 17.5 | 31.7 | > 50 | 7.1 | 15.3 | –
